Assay results as given in ChEMBL document CHEMBL5244269, “Improving metabolic stability and removing aldehyde oxidase liability in a 5-azaquinazoline series of IRAK4 inhibitors” (Bioorg Med Chem, 2020).

How the values were obtained:
Format in all cases: functional
[1] = tested on: SUD4; assay: Growth inhibition of human SU-DHL-4 cells at 1.7 uM incubated for 3 days in presence of 0.033 uM acalabrutinib relative to control; conditions: SU-DHL-4, 72 h, time 3 day, read-out: GI
[2] = tested on: SUD4; assay: Growth inhibition of human SU-DHL-4 cells at 1.7 uM incubated for 3 days in presence of 0.017 uM acalabrutinib relative to control; conditions: SU-DHL-4, 72 h, time 3 day, read-out: GI
[3] = tested on: SUD4; assay: Growth inhibition of human SU-DHL-4 cells at 1.7 uM incubated for 3 days in presence of 0.003 uM acalabrutinib relative to control; conditions: SU-DHL-4, 72 h, time 3 day, read-out: GI
[4] = tested on: SUD4; assay: Growth inhibition of human SU-DHL-4 cells at 0.33 uM incubated for 3 days in presence of 0.17 uM acalabrutinib relative to control; conditions: SU-DHL-4, 72 h, time 3 day, read-out: GI
[5] = tested on: SUD4; assay: Growth inhibition of human SU-DHL-4 cells at 0.33 uM incubated for 3 days in presence of 0.033 uM acalabrutinib relative to control; conditions: SU-DHL-4, 72 h, time 3 day, read-out: GI
[6] = tested on: SUD4; assay: Growth inhibition of human SU-DHL-4 cells at 0.33 uM incubated for 3 days in presence of 0.017 uM acalabrutinib relative to control; conditions: SU-DHL-4, 72 h, time 3 day, read-out: GI
[7] = tested on: SUD4; assay: Growth inhibition of human SU-DHL-4 cells at 0.17 uM incubated for 3 days in presence of 0.33 uM acalabrutinib relative to control; conditions: SU-DHL-4, 72 h, time 3 day, read-out: GI
[8] = tested on: SUD4; assay: Growth inhibition of human SU-DHL-4 cells at 0.33 uM incubated for 3 days in presence of 0.003 uM acalabrutinib relative to control; conditions: SU-DHL-4, 72 h, time 3 day, read-out: GI
[9] = tested on: SUD4; assay: Growth inhibition of human SU-DHL-4 cells at 0.17 uM incubated for 3 days in presence of 0.17 uM acalabrutinib relative to control; conditions: SU-DHL-4, 72 h, time 3 day, read-out: GI
[10] = tested on: SUD4; assay: Growth inhibition of human SU-DHL-4 cells at 0.17 uM incubated for 3 days in presence of 0.033 uM acalabrutinib relative to control; conditions: SU-DHL-4, 72 h, time 3 day, read-out: GI
[11] = tested on: SUD4; assay: Growth inhibition of human SU-DHL-4 cells at 0.17 uM incubated for 3 days in presence of 0.017 uM acalabrutinib relative to control; conditions: SU-DHL-4, 72 h, time 3 day, read-out: GI
[12] = tested on: SUD4; assay: Growth inhibition of human SU-DHL-4 cells at 0.17 uM incubated for 3 days in presence of 0.003 uM acalabrutinib relative to control; conditions: SU-DHL-4, 72 h, time 3 day, read-out: GI
[13] = tested on: OCI-Ly10; assay: Growth inhibition of human OCILY10 cells at 0.17 uM incubated for 3 days in presence of 0.003 uM acalabrutinib relative to control; conditions: OCI-Ly10, 72 h, time 3 day, read-out: GI
[14] = tested on: OCI-Ly10; assay: Growth inhibition of human OCILY10 cells at 0.17 uM incubated for 3 days in presence of 0.033 uM acalabrutinib relative to control; conditions: OCI-Ly10, 72 h, time 3 day, read-out: GI
[15] = tested on: OCI-Ly10; assay: Growth inhibition of human OCILY10 cells at 0.17 uM incubated for 3 days in presence of 0.17 uM acalabrutinib relative to control; conditions: OCI-Ly10, 72 h, time 3 day, read-out: GI
[16] = tested on: OCI-Ly10; assay: Growth inhibition of human OCILY10 cells at 0.17 uM incubated for 3 days in presence of 0.33 uM acalabrutinib relative to control; conditions: OCI-Ly10, 72 h, time 3 day, read-out: GI
[17] = tested on: OCI-Ly10; assay: Growth inhibition of human OCILY10 cells at 0.33 uM incubated for 3 days in presence of 0.003 uM acalabrutinib relative to control; conditions: OCI-Ly10, 72 h, time 3 day, read-out: GI
[18] = tested on: OCI-Ly10; assay: Growth inhibition of human OCILY10 cells at 0.33 uM incubated for 3 days in presence of 0.017 uM acalabrutinib relative to control; conditions: OCI-Ly10, 72 h, time 3 day, read-out: GI
[19] = tested on: OCI-Ly10; assay: Growth inhibition of human OCILY10 cells at 0.33 uM incubated for 3 days in presence of 0.033 uM acalabrutinib relative to control; conditions: OCI-Ly10, 72 h, time 3 day, read-out: GI
[20] = tested on: OCI-Ly10; assay: Growth inhibition of human OCILY10 cells at 0.33 uM incubated for 3 days in presence of 0.33 uM acalabrutinib relative to control; conditions: OCI-Ly10, 72 h, time 3 day, read-out: GI
[21] = tested on: OCI-Ly10; assay: Growth inhibition of human OCILY10 cells at 1.7 uM incubated for 3 days in presence of 0.003 uM acalabrutinib relative to control; conditions: OCI-Ly10, 72 h, time 3 day, read-out: GI
[22] = tested on: OCI-Ly10; assay: Growth inhibition of human OCILY10 cells at 1.7 uM incubated for 3 days in presence of 0.017 uM acalabrutinib relative to control; conditions: OCI-Ly10, 72 h, time 3 day, read-out: GI
[23] = tested on: OCI-Ly10; assay: Growth inhibition of human OCILY10 cells at 1.7 uM incubated for 3 days in presence of 0.033 uM acalabrutinib relative to control; conditions: OCI-Ly10, 72 h, time 3 day, read-out: GI
[24] = tested on: OCI-Ly10; assay: Growth inhibition of human OCILY10 cells at 1.7 uM incubated for 3 days in presence of 0.17 uM acalabrutinib relative to control; conditions: OCI-Ly10, 72 h, time 3 day, read-out: GI
[25] = tested on: OCI-Ly10; assay: Growth inhibition of human OCILY10 cells at 3.3 uM incubated for 3 days in presence of 0.003 uM acalabrutinib relative to control; conditions: OCI-Ly10, 72 h, time 3 day, read-out: GI
[26] = tested on: OCI-Ly10; assay: Growth inhibition of human OCILY10 cells at 3.3 uM incubated for 3 days in presence of 0.017 uM acalabrutinib relative to control; conditions: OCI-Ly10, 72 h, time 3 day, read-out: GI
[27] = tested on: OCI-Ly10; assay: Growth inhibition of human OCILY10 cells at 3.3 uM incubated for 3 days in presence of 0.17 uM acalabrutinib relative to control; conditions: OCI-Ly10, 72 h, time 3 day, read-out: GI
[28] = tested on: OCI-Ly10; assay: Growth inhibition of human OCILY10 cells at 3.3 uM incubated for 3 days in presence of 0.33 uM acalabrutinib relative to control; conditions: OCI-Ly10, 72 h, time 3 day, read-out: GI
[29] = tested on: OCI-Ly10; assay: Growth inhibition of human OCILY10 cells at 10 uM incubated for 3 days in presence of 0.003 uM acalabrutinib relative to control; conditions: OCI-Ly10, 72 h, time 3 day, read-out: GI
[30] = tested on: OCI-Ly10; assay: Growth inhibition of human OCILY10 cells at 10 uM incubated for 3 days in presence of 0.017 uM acalabrutinib relative to control; conditions: OCI-Ly10, 72 h, time 3 day, read-out: GI
[31] = tested on: OCI-Ly10; assay: Growth inhibition of human OCILY10 cells at 10 uM incubated for 3 days in presence of 0.033 uM acalabrutinib relative to control; conditions: OCI-Ly10, 72 h, time 3 day, read-out: GI
[32] = tested on: OCI-Ly10; assay: Growth inhibition of human OCILY10 cells at 10 uM incubated for 3 days in presence of 0.17 uM acalabrutinib relative to control; conditions: OCI-Ly10, 72 h, time 3 day, read-out: GI
[33] = tested on: OCI-Ly10; assay: Growth inhibition of human OCILY10 cells at 10 uM incubated for 3 days in presence of 0.33 uM acalabrutinib relative to control; conditions: OCI-Ly10, 72 h, time 3 day, read-out: GI
[34] = tested on: SUD4; assay: Growth inhibition of human SU-DHL-4 cells at 1.7 uM incubated for 3 days in presence of 0.17 uM acalabrutinib relative to control; conditions: SU-DHL-4, 72 h, time 3 day, read-out: GI
[35] = tested on: SUD4; assay: Growth inhibition of human SU-DHL-4 cells at 1.7 uM incubated for 3 days in presence of 0.33 uM acalabrutinib relative to control; conditions: SU-DHL-4, 72 h, time 3 day, read-out: GI
[36] = tested on: SUD4; assay: Growth inhibition of human SU-DHL-4 cells at 3.3 uM incubated for 3 days in presence of 0.003 uM acalabrutinib relative to control; conditions: SU-DHL-4, 72 h, time 3 day, read-out: GI
[37] = tested on: SUD4; assay: Growth inhibition of human SU-DHL-4 cells at 3.3 uM incubated for 3 days in presence of 0.017 uM acalabrutinib relative to control; conditions: SU-DHL-4, 72 h, time 3 day, read-out: GI
[38] = tested on: SUD4; assay: Growth inhibition of human SU-DHL-4 cells at 3.3 uM incubated for 3 days in presence of 0.033 uM acalabrutinib relative to control; conditions: SU-DHL-4, 72 h, time 3 day, read-out: GI
[39] = tested on: SUD4; assay: Growth inhibition of human SU-DHL-4 cells at 3.3 uM incubated for 3 days in presence of 0.17 uM acalabrutinib relative to control; conditions: SU-DHL-4, 72 h, time 3 day, read-out: GI
[40] = tested on: SUD4; assay: Growth inhibition of human SU-DHL-4 cells at 10 uM incubated for 3 days in presence of 0.017 uM acalabrutinib relative to control; conditions: SU-DHL-4, 72 h, time 3 day, read-out: GI
[41] = tested on: SUD4; assay: Growth inhibition of human SU-DHL-4 cells at 10 uM incubated for 3 days in presence of 0.033 uM acalabrutinib relative to control; conditions: SU-DHL-4, 72 h, time 3 day, read-out: GI

With `CC[C@@H]1[C@H](F)C(=O)N[C@@H]1COc1nccc2cc(C(N)=O)c(OC)cc12` [ZIMLOVISERTIB] the inhibition of growth at 1.7 µM [1] was 1%, the inhibition of growth at 1.7 µM [2] was 2% and the inhibition of growth at 1.7 µM [3] was 2%. The inhibition of growth at 0.33 µM [4] was 2%, the inhibition of growth at 0.33 µM [5] was 1% and the inhibition of growth at 0.33 µM [6] was 1%. The inhibition of growth at 0.17 µM [7] was 6%, the inhibition of growth at 0.33 µM [8] was 1% and the inhibition of growth at 0.17 µM [9] was 2%. It also gave an inhibition of growth at 0.17 µM [10] of 1%, an inhibition of growth at 0.17 µM [11] of 1% and an inhibition of growth at 0.17 µM [12] of 1%. For the same compound, the inhibition of growth at 0.17 µM [13] was 22%, the inhibition of growth at 0.17 µM [14] was 142% and the inhibition of growth at 0.17 µM [15] was 171%. The inhibition of growth at 0.17 µM [16] was 171%, the inhibition of growth at 0.33 µM [17] was 21% and the inhibition of growth at 0.33 µM [18] was 92%. For the same compound, the inhibition of growth at 0.33 µM [19] was 142%, the inhibition of growth at 0.33 µM [20] was 172% and the inhibition of growth at 1.7 µM [21] was 26%. It also gave an inhibition of growth at 1.7 µM [22] of 89%, an inhibition of growth at 1.7 µM [23] of 139% and an inhibition of growth at 1.7 µM [24] of 170%. It also gave an inhibition of growth at 3.3 µM [25] of 36%, an inhibition of growth at 3.3 µM [26] of 95% and an inhibition of growth at 3.3 µM [27] of 170%. It also gave an inhibition of growth at 3.3 µM [28] of 170%, an inhibition of growth at 10 µM [29] of 80% and an inhibition of growth at 10 µM [30] of 140%. For the same compound, the inhibition of growth at 10 µM [31] was 155%, the inhibition of growth at 10 µM [32] was 178% and the inhibition of growth at 10 µM [33] was 177%. For the same compound, the inhibition of growth at 1.7 µM [34] was 3%, the inhibition of growth at 1.7 µM [35] was 6% and the inhibition of growth at 3.3 µM [36] was 2%. For the same compound, the inhibition of growth at 3.3 µM [37] was 2%, the inhibition of growth at 3.3 µM [38] was 2% and the inhibition of growth at 3.3 µM [39] was 3%. For the same compound, the inhibition of growth at 10 µM [40] was 3% and the inhibition of growth at 10 µM [41] was 2%.
